In brackets after ≈: the same amount, converted by molar mass. Like-named read-outs stand apart in the source and are kept apart here.
Columns and labels:
OleD A242V = molecular target: T1, OleD A242V (Streptomyces antibioticus, UniProt Q53685, A242V/P55A/R82V/R83E/T84P); assay: Rate of glucoside formation with acceptors (RP-HPLC); format: biochemical; details: 200 μM acceptor, 1 mM UDPG
T1 construct: made in house; host or cells: E. coli BL21(DE3)pLysS (error-prone PCR clone in pET28a)
Procedure: (§1) Enzyme assays for the determination of glycosyl transfer rate to FIG. 1: 4, Table 1: 27-32 were carried out in a total volume of 500 μl 50 mM Tris-HCl (pH8.0) containing 5 mM MgCl2, 200 μM acceptor, 1 mM UDPG, and 50 μg pure enzyme. Aliquots (100 μl) were removed between 0 and 30 min, at which time product formation was still linear with respect to time, and quenched with 90 μl of an 8:1 mixture of ice-cold MeOH/HCl, and centrifuged at 14,000 rpm for 10 min. Supernatants were analyzed by analytical reverse-phase HPLC with a 250 mm×4.6 mm Gemini […] C18 column (Phenomenex, Torrance, Calif.) using a gradient of 10-90% CH3CN in 0.1% trifluoroacetic acid (TFA)/H2O in 20 min at 1 ml/min, with detection at 254 nm. HPLC peak areas were integrated, and the product concentration calculated as a percent of the total peak area. Product identity was confirmed by co-elution with a commercial standard when available and, in all cases, by LC-MS (FIG. 8).
(§2) Reaction conditions for assay of macrolide glycosylation were identical to that for FIG. 1: 1, except that typically, less enzyme was used (1-10 μg) and reactions were quenched with an equal volume of ice-cold MeOH. Centrifuged reaction mixtures were analyzed by analytical reverse-phase HPLC with a Gemini 5μ C18 column (Phenomenex) using a gradient of 0-90% CH3CN in 50 mM NH3COOH over 30 min at 1 ml/min. Products and acceptor macrolide were detected by evaporative light scattering detection (ELSD) using a drift tube temperature of 105° C. and a nitrogen flow of 2.5 ml/min. All products were characterized by APCI LC-MS on an Agilent 1100 Series LC/MSD quadrapole mass spectrometer connected to a UV detector. Quenched reaction mixtures were analyzed by reverse-phase HPLC with a 10 mm×4.6 mm Zorbax Extend 5μ C18 Analytical Guard Column (Agilent Technologies) using an isocratic gradient of 80% MeOH in 2 min at 1 ml/min, with detection at 254 nm.
(§3) Enzyme reactions were carried out in a total volume of 500 μl 50 mM Tris-HCl (pH8.0) containing 5 mM MgCl2, 200 μM acceptor, 1 mM UDPG, and 50 μg pure enzyme. Aliquots (100 μl) were removed between 0 and 30 min, and quenched with 90 μl of an 8:1 mixture of ice-cold MeOH/HCl for activity towards FIG. 1: 4, Table 1: 27-32, or with 90 μl of ice-cold MeOH for activity towards FIG. 1: 1, and the samples centrifuged at 14,000 rpm for 10 min.
(§4) For determination of activity to FIG. 1: 4, Table 1: 27-32, supernatants were analyzed by analytical reverse-phase HPLC with a Gemini 5μ C18 column (Phenomenex) using a gradient of 10-90% CH3CN in 0.1% trifluoroacetic acid (TFA)/H2O in 20 min, with detection at 254 nm. HPLC peak areas were integrated, and the product concentration calculated as a percent of the total peak area. All products were characterized by LC-MS. Mass spectra were obtained using electrospray ionization on an Agilent 1100 HPLC-MSD SL quadrapole mass spectrometer connected to a UV/Vis diode array detector. For LC-MS analysis, quenched reaction mixtures (see below) were analyzed by analytical reverse-phase HPLC with a 250 mm×4.6 mm Gemini 5μ C18 column (Phenomenex, Torrance, Calif.) using a gradient of 10-90% CH3CN in 0.1% formic acid/H2O in 20 min at 1 ml/min, with detection at 254 nm.
as §2, with “For determination” for “Reaction conditions for assay”, “activity toward” for “macrolide glycosylation were identical to that for”, “centrifuged” for “except that typically, less enzyme was used (1-10 μg) and reactions were quenched with an equal volume of ice-cold MeOH. Centrifuged”, “Compounds FIG. 1: 1” for “Products”, “3” for “acceptor macrolide”

OleD P67T = molecular target: T2, OleD P67T (Streptomyces antibioticus, UniProt Q53685, P55A/P67T/R82V/R83E/T84P); assay: as above; format: biochemical; details: 200 μM acceptor, 1 mM UDPG
T2 construct: made in house; host or cells: E. coli (site-directed mutant of pET28/OleD)
Procedure: as §1, §2, §3, §4
as §2, with “For determination” for “Reaction conditions for assay”, “activity toward” for “macrolide glycosylation were identical to that for”, “centrifuged” for “except that typically, less enzyme was used (1-10 μg) and reactions were quenched with an equal volume of ice-cold MeOH. Centrifuged”, “Compounds FIG. 1: 1” for “Products”, “3” for “acceptor macrolide”

WT OleD = molecular target: T3, WT OleD (Streptomyces antibioticus, UniProt Q53685, P55A/R82V/R83E/T84P); assay: as above; format: biochemical; details: 200 μM acceptor, 1 mM UDPG
T3 construct: made in house; host or cells: E. coli BL21(DE3)pLysS, plasmid pET28/OleD
Procedure: as §1, §2, §3, §4
as §2, with “For determination” for “Reaction conditions for assay”, “activity toward” for “macrolide glycosylation were identical to that for”, “centrifuged” for “except that typically, less enzyme was used (1-10 μg) and reactions were quenched with an equal volume of ice-cold MeOH. Centrifuged”, “Compounds FIG. 1: 1” for “Products”, “3” for “acceptor macrolide”

OleD S132F = molecular target: T4, OleD S132F (Streptomyces antibioticus, UniProt Q53685, P55A/R82V/R83E/S132F/T84P); assay: as above; format: biochemical; details: 200 μM acceptor, 1 mM UDPG
T4 construct: made in house; host or cells: E. coli (site-directed mutant of pET28/OleD)
Procedure: as §1, §2, §3, §4
as §2, with “For determination” for “Reaction conditions for assay”, “activity toward” for “macrolide glycosylation were identical to that for”, “centrifuged” for “except that typically, less enzyme was used (1-10 μg) and reactions were quenched with an equal volume of ice-cold MeOH. Centrifuged”, “Compounds FIG. 1: 1” for “Products”, “3” for “acceptor macrolide”

[1] = Solubility limit of acceptors; format: physicochemical

SMILES	Rate of glucoside formation, A242V (OleD A242V)	Rate of glucoside formation, P67T (OleD P67T)	Rate of glucoside formation, WT (WT OleD)	Rate of glucoside formation, S132F (OleD S132F)	solubility ([1]; aqueous with cosolvent or surfactant or cyclodextrin, in water/DMSO, read-out: solubility limit) [mM]	solubility ([1]; enzyme assay buffer (50 mM Tris-HCl with 5 mM MgCl2), pH 8, limited solubility in assay, read-out: solubility) [mM]	solubility ([1]; in kinetic assay, read-out: solubility limit) [mM]
Cc1cc(=O)oc2cc(O)ccc12 [4-Me-umb (4), 7-hydroxy-4-methylcoumarin]	5.4 mmols/product formed/min/μg enzyme × 10^3	15.7 mmols/product formed/min/μg enzyme × 10^3	2.5 mmols/product formed/min/μg enzyme × 10^3	6.3 mmols/product formed/min/μg enzyme × 10^3	10 (≈ 1760 µg/mL)	< 4	–
CC(C)=CCc1cc(C(=O)Nc2c(O)c3ccc(O)c(C)c3oc2=O)ccc1O [novobiocic acid (29), novobiocic acid]	0.33 mmols/product formed/min/μg enzyme × 10^3	0.65 mmols/product formed/min/μg enzyme × 10^3	0.24 mmols/product formed/min/μg enzyme × 10^3	0.49 mmols/product formed/min/μg enzyme × 10^3	–	–	5 (≈ 1980 µg/mL)
